1 compound from publication PMC7411736, “Effects of Sesamin, the Major Furofuran Lignan of Sesame Oil, on the Amplitude and Gating of Voltage-Gated Na^+ and K^+ Currents” (Molecules, 2020) can be followed below.

Assay [1] relates to resurgent INa (INa(R)) in GH3 cells. Description: Whole-cell patch-clamp of resurgent INa (step to +20 mV, repolarization to −50 to 0 mV). To be noted: 1 μM; at −30 mV; control 46 ± 6 pA; n = 8. The format is cell-based, rat. From the text:
We next wanted to determine whether SSM exerts any effects on INa(R) identified from these cells. The whole-cell experiments on INa(R) were undertaken when each cell was voltage clamped at −80 mV and a brief depolarizing step to +20 mV was delivered to activate transient INa. The INa(R) upon repolarization to various potentials ranging between −50 and 0 mV was thereafter measured at the end of voltage pulses (Figure 4). The effect of SSM on INa(R) was examined at various membrane potentials, and the I-V relationship of INa(R) with or without the addition of SSM was constructed. […]
On the day of each experiment, cells were dispersed with a 1% trypsin/EDTA solution and a few drops of cell suspension were rapidly placed in a custom-built recording chamber mounted on the stage of an inverted DM-IL microscope (Leica; Major Instruments, Kaohsiung, Taiwan). […] We measured ion currents in the whole-cell model of a standard patch-clamp technique with dynamic adaptive suctioning (i.e., decremental change of suction pressure in response to a progressive increase in the electrode resistance), with the aid of an RK-400 (Bio-Logic, Claix, France) or an Axopatch-200B (Molecular Devices, Sunnyvale, CA) patch amplifier. […] During the measurements, the recorded area on the vibration-free table was shielded by using a Faraday cage (Scitech, Seoul, South Korea). […]

Assay [2] deals with M-type K+ currents (IK(M)) in GH3 cells. Description: Whole-cell patch-clamp of M-type K+ current (depolarization from −50 to −10 mV, 1 sec). The format is cell-based, rat. To be noted: amplitude at end of pulse, read-out: IC50 for decrease of IK. From the text:
The following experiments were further undertaken to determine whether the addition of SSM could exert any perturbations on the amplitude or gating of IK(M) in these cells. Cells were bathed in high-K^+, Ca^2+-free solution, and the recording pipette was then filled with K^+-enriched solution. Figure 5 illustrates that the presence of SSM can result in a concentration-dependent depression in the amplitude of IK(M) during step depolarization.
The bath solution (i.e., a HEPES-buffered normal Tyrode’s solution) utilized in the present study was composed of 136 mM NaCl, 5.4 mM KCl, 1.8 mM CaCl2, 0.53 mM MgCl2, 5.5 mM glucose, and 5.5 mM HEPES titrated with NaOH to pH 7.4. […]
On the day of each experiment, cells were dispersed with a 1% trypsin/EDTA solution and a few drops of cell suspension were rapidly placed in a custom-built recording chamber mounted on the stage of an inverted DM-IL microscope (Leica; Major Instruments, Kaohsiung, Taiwan). […] We measured ion currents in the whole-cell model of a standard patch-clamp technique with dynamic adaptive suctioning (i.e., decremental change of suction pressure in response to a progressive increase in the electrode resistance), with the aid of an RK-400 (Bio-Logic, Claix, France) or an Axopatch-200B (Molecular Devices, Sunnyvale, CA) patch amplifier. […]

SMILES strings stand for the structures.

Consider `c1cc2c(cc1[C@H]1OC[C@H]3[C@@H]1CO[C@@H]3c1ccc3c(c1)OCO3)OCO2` [SSM, [1S-(1α,3aα,4α,6aα)] -5,5’- (tetrahydro-1H,3H-furo [3–4-c]furan-1,4-diyl)bis-1,3-benzodioxole], for which, in assay [1], the “INa(R) amplitude” value is on record as 22 ± 5 pA. The concentration for half-maximal inhibition (IC50) in assay [2] came out at 4.8 µM.
